# Results reported in PubChem BioAssay (NCI).
#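 1) Cells in 96-well plates. 2) Compound, 48 h, 5 concentrations. 3) Linear interpolation between surrounding doses. 4) Unreached endpoint = highest concentration. At the GI50, growth is halved. Definition used: TGI = concentration required for complete inhibition of growth.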
# What was measured:
# Test in all cases: growth of human tumour cells (NCI), 48 h
# CAKI-1 renal = tested on: CAKI-1 renal
# MCF7 breast = tested on: MCF7 breast
# MDA-MB-231 breast = tested on: MDA-MB-231 breast
# NCI-H23 lung = tested on: NCI-H23 lung
# NCI-H460 lung = tested on: NCI-H460 lung
# OVCAR-3 ovarian = tested on: OVCAR-3 ovarian
# SF-539 CNS = tested on: SF-539 CNS
# SK-MEL-5 melanoma = tested on: SK-MEL-5 melanoma
# SN12C renal = tested on: SN12C renal
# UACC-257 melanoma = tested on: UACC-257 melanoma
SMILES,TGI (CAKI-1 renal) [µM],TGI (MCF7 breast) [µM],TGI (MDA-MB-231 breast) [µM],TGI (NCI-H23 lung) [µM],TGI (NCI-H460 lung) [µM],TGI (OVCAR-3 ovarian) [µM],TGI (SF-539 CNS) [µM],TGI (SK-MEL-5 melanoma) [µM],TGI (SN12C renal) [µM],TGI (UACC-257 melanoma) [µM],GI50 (CAKI-1 renal) [µM],GI50 (MCF7 breast) [µM],GI50 (MDA-MB-231 breast) [µM],GI50 (NCI-H23 lung) [µM],GI50 (NCI-H460 lung) [µM],GI50 (OVCAR-3 ovarian) [µM],GI50 (SF-539 CNS) [µM],GI50 (SK-MEL-5 melanoma) [µM],GI50 (SN12C renal) [µM],GI50 (UACC-257 melanoma) [µM]
C=C1C(=O)O[C@@H]2/C=C(/C)[C@@H](OC(C)=O)C/C=C(\C)C(O)[C@@H](OC(=O)/C(C)=C\C)C12 (some centres undefined),54.4,> 100,39.2,> 100,> 100,> 100,> 100,32.1,43.1,> 100,,,,,,,,,,
O=C(Nc1n[nH]c2cc(-c3cc(F)ccc3F)ccc12)C1CC1,> 25,> 19.8,> 25,> 25,> 25,24.2,> 25,> 25,> 25,> 25,> 20.9,7.43,19.5,14.2,8.81,9.3,13.5,8.09,15.7,> 25
O=C1NC(=NCCc2ccc(Cl)cc2)S/C1=C\c1ccc2ncccc2c1,> 25,> 25,> 25,> 25,> 25,> 25,> 25,> 25,> 25,> 25,> 19.5,10.2,> 25,23.3,17.8,> 25,15.9,15.8,> 25,> 25
OCc1ccc(N(Cc2ccc(F)cc2)Cc2ccc(F)cc2)cc1Cl,5.87,17,25.9,24.3,17.1,22.7,30,28.9,26,15.6,1.7,3.72,11.8,7.95,3.64,10.3,15.7,15.3,11.5,3.74
O=c1c(-c2ccc3c(c2)OCO3)coc2c3c(ccc12)OCO3,> 100,33.7,41,40,32.1,> 100,58.7,> 100,> 100,> 100,,,,,,,,,,
COc1cc2c(/C=C3\C(=O)Nc4ccccc43)c[nH]c2cc1C,13.3,> 82.1,2.69,0.0719,> 100,11.8,< 0.0243,1.89,1.39,26,0.409,,0.289,0.0115,0.0761,0.306,< 0.0138,< 0.015,0.275,< 0.01
COC1=CC(c2ccc[nH]2)=N/C1=C\c1[nH]c(C)c(C(=O)CCCCCCCCC(=O)O[C@H]2CC[C@H]3C4CCc5cc(O)ccc5C4CC[C@]23C)c1C (some centres undefined),> 28.4,> 50,7.06,> 50,> 50,15,> 50,0.456,> 50,> 50,1.1,0.37,0.148,1.85,0.536,0.493,0.46,0.139,0.6,3.62
CCCCCCCC(=O)OCC/C=C/C1OC1C1OC(=O)/C=C\C=C\C(=O)N(C(C)=O)C(=O)/C=C(/C)CCC2OC2C1OC(=O)NC(C)=O (centres undefined),> 25,11.5,> 25,12.8,> 25,8.4,7.36,> 25,> 25,> 25,15,1.7,10.5,5.07,11.4,4.07,3.68,7.03,7.29,9.38
Cc1ccc(/C(=N/Nc2ccc([N+](=O)[O-])cc2)Sc2cc(Cl)c(C)cc2S(N)(=O)=O)cc1,3.27,> 21.5,2.24,3.59,9.07,2.61,2.97,5.56,3.95,18.8,1.61,2.6,0.8,1.64,2.55,1.22,1.1,1.78,1.69,6.45
CC(C)C[C@@H](N)[C@@H](O)C(=O)N[C@H](C(=O)N[C@H](C(=O)N[C@@H](CC(=O)O)C(=O)O)C(C)C)C(C)C,> 20,> 20,> 20,> 20,> 20,> 20,> 20,> 20,> 20,> 20,> 20,> 20,> 20,> 20,> 20,> 20,> 20,> 20,> 20,> 20
COc1cc(O)ccc1C(=S)SC,> 100,> 100,88.4,> 100,> 100,> 100,> 100,> 100,9.56,> 100,,,,,,,,,,
CSc1nc(Nc2cccc(NC(=O)CCl)c2)c(C#N)c(-c2cccc([N+](=O)[O-])c2)n1,10.4,2.44,10.7,4.35,23.2,3.24,0.528,3.28,10.3,5.2,2.12,0.74,2.39,1.7,4.12,1.77,0.216,1.51,2.78,2.18
